Test results reported in patent US20260225997A1, “IONIZABLE AMINE LIPIDS” (Intellia Therapeutics, Inc., priority 2018, published 2026).
Where two headings read alike, the source gives them in different places.

How the values were obtained:
[1] = pKa measurement of unformulated amine lipid (fluorescence, method of Jayaraman et al.); assay type: physicochemical; conditions: 100 μM in 0.1 M phosphate buffer pH 4.5-9.0
Method: The pKa of each amine lipid was determined according to the method in Jayaraman, et al. (Angewandte Chemie, 2012) with the following adaptations. […] Lipid was diluted to 100 μM in 0.1 M phosphate buffer (Boston Bioproducts) where the pH ranged from 4.5-9.0. Fluorescence intensity was measured using excitation and emission wavelengths of 321 nm and 448 nm.

[2] = LNP average particle size and polydispersity by dynamic light scattering (Malvern Zetasizer); assay type: physicochemical
Source text: The LNPs have a size of about 1 to about 1,000 nm, about 10 to about 500 nm, about 20 to about 500 nm, in a sub-embodiment about 50 to about 400 nm, in a sub-embodiment about 50 to about 300 nm, in a sub-embodiment about 50 to about 200 nm, and in a sub-embodiment about 50 to about 150 nm, and in another sub-embodiment about 60 to about 120 nm. Preferably, the LNPs have a size from about 60 nm to about 100 nm. The average sizes (diameters) of the fully formed LNP, may be measured by dynamic light scattering on a Malvern Zetasizer. The LNP sample is diluted in phosphate buffered saline (PBS) so that the count rate is approximately 200-400 kcps. The data is presented as a weighted average of the intensity measure.
The LNPs disclosed herein have a size (e.g. Z-average diameter) of about 1 to about 250 nm. In some embodiments, the LNPs have a size of about 10 to about 200 nm. In further embodiments, the LNPs have a size of about 20 to about 150 nm. In some embodiments, the LNPs have a size of about 50 to about 150 nm. In some embodiments, the LNPs have a size of about 50 to about 100 nm. In some embodiments, the LNPs have a size of about 50 to about 120 nm. In some embodiments, the LNPs have a size of about 60 to about 100 nm. In some embodiments, the LNPs have a size of about 75 to about 150 nm. In some embodiments, the LNPs have a size of about 75 to about 120 nm. In some embodiments, the LNPs have a size of about 75 to about 100 nm. Unless indicated otherwise, all sizes referred to herein are the average sizes (diameters) of the fully formed nanoparticles, as measured by dynamic light scattering on a Malvern Zetasizer. The nanoparticle sample is diluted in phosphate buffered saline (PBS) so that the count rate is approximately 200-400 kcps. The data is presented as a weighted-average of the intensity measure (Z-average diameter).
Dynamic Light Scattering (“DLS”) is used to characterize the polydispersity index (“pdi”) and size of the LNPs of the present disclosure. DLS measures the scattering of light that results from subjecting a sample to a light source. PDI, as determined from DLS measurements, represents the distribution of particle size (around the mean particle size) in a population, with a perfectly uniform population having a PDI of zero.
LNP compositions are analyzed for average particle size, polydispersity index (pdi), total RNA content, encapsulation efficiency of RNA, and zeta potential. LNP compositions may be further characterized by lipid analysis, AF4-MALS, NTA, and/or cryo-EM. Average particle size and polydispersity are measured by dynamic light scattering (DLS) using a Malvern Zetasizer DLS instrument. LNP samples were diluted with PBS buffer prior to being measured by DLS. Z-average diameter which is an intensity-based measurement of average particle size was reported along with number average diameter and pdi. A Malvern Zetasizer instrument is also used to measure the zeta potential of the LNP. Samples are diluted 1:17 (50 μL into 800 μL) in 0.1×PBS, pH 7.4 prior to measurement.

[3] = RNA encapsulation efficiency of LNP (Ribogreen fluorescence assay); assay type: physicochemical; conditions: N:P 6.0
Method: A fluorescence-based assay (Ribogreen®, ThermoFisher Scientific) is used to determine total RNA concentration and free RNA. Encapsulation efficiency is calculated as (Total RNA−Free RNA)/Total RNA. LNP samples are diluted appropriately with 1× TE buffer containing 0.2% Triton-X 100 to determine total RNA or 1× TE buffer to determine free RNA. Standard curves are prepared by utilizing the starting RNA solution used to make the compositions and diluted in 1× TE buffer+/−0.2% Triton-X 100. Diluted RiboGreen® dye (according to the manufacturer's instructions) is then added to each of the standards and samples and allowed to incubate for approximately 10 minutes at room temperature, in the absence of light. A SpectraMax M5 Microplate Reader (Molecular Devices) is used to read the samples with excitation, auto cutoff and emission wavelengths set to 488 nm, 515 nm, and 525 nm respectively. Total RNA and free RNA are determined from the appropriate standard curves.
Encapsulation efficiency is calculated as (Total RNA−Free RNA)/Total RNA. The same procedure may be used for determining the encapsulation efficiency of a DNA-based cargo component. For single-strand DNA Oligreen Dye may be used, and for double-strand DNA, Picogreen Dye.

TTR [4] = assay: TTR editing in mouse liver by NGS after i.v. LNP delivery of Cas9 mRNA and sgRNA; assay type: in vivo; conditions: CD-1 female mice
Method: Preparations of various LNP compositions were prepared with amine lipids. In assays for percent liver editing in mice, Cas9 mRNA and chemically modified sgRNA were formulated in LNPs, at either a 1:1 w/w ratio or a 1:2 w/w ratio. LNPs are formulated with a composition of a given ionizable lipid (e.g. an amine lipid), DSPC, cholesterol, and PEG-2k-DMG, with a 6.0 N:P ratio.
(§1) CD-1 female mice, ranging from 6-10 weeks of age were used in each study. Animals were weighed and grouped according to body weight for preparing dosing solutions based on group average weight. LNPs were dosed via the lateral tail vein in a volume of 0.2 mL per animal (approximately 10 mL per kilogram body weight). The animals were periodically observed post dose for adverse effects for at least 24 hours post dose. Animals were euthanized at 6 or 7 days by exsanguination via cardiac puncture under isoflurane anesthesia. Blood was collected into serum separator tubes or into tubes containing buffered sodium citrate for plasma as described herein. For studies involving in vivo editing, liver tissue was collected from each animal for DNA extraction and analysis.
Cohorts of mice were measured for liver editing by Next-Generation Sequencing (NGS).
In brief, to quantitatively determine the efficiency of editing at the target location in the genome, genomic DNA was isolated and deep sequencing was utilized to identify the presence of insertions and deletions introduced by gene editing.
PCR primers were designed around the target site (e.g., B2M), and the genomic area of interest was amplified. Additional PCR was performed according to the manufacturer's protocols (Illumina) to add the necessary chemistry for sequencing. The amplicons were sequenced on an Illumina MiSeq instrument. The reads were aligned to the […] after eliminating those having low quality scores. The resulting files containing the reads were mapped to the reference genome (BAM files), where reads that overlapped the target region of interest were selected and the number of wild type reads versus the number of reads which contain an insertion, substitution, or deletion was calculated.
The editing percentage (e.g., the “editing efficiency” or “percent editing”) is defined as the total number of sequence reads with insertions or deletions over the total number of sequence reads, including wild type.
CD-1 female mice were dosed i.v. at 0.1 mpk or 0.3 mpk. At 6 days post-dose, animals were sacrificed. For animals dosed with G282 targeting TTR, blood and the liver were collected and serum TTR and editing were measured. For animals dosed with G650 targeting B2M, liver was collected and editing was measured.

TTR [5] = assay: Transthyretin (TTR) ELISA analysis of mouse serum after LNP dosing; assay type: in vivo; conditions: for response vs control in vivo at 0.1 mg/kg: read-out: Serum TTR % TSS
Method: as §1
CD-1 female mice were dosed i.v. at 0.1 mpk or 0.3 mpk. […] For animals dosed with G282 targeting TTR, blood and the liver were collected and serum TTR and editing were measured. For animals dosed with G650 targeting B2M, liver was collected and editing was measured.
Blood was collected and the serum was isolated as indicated. The total mouse TTR serum levels were determined using a Mouse Prealbumin (Transthyretin) ELISA Kit (Aviva Systems Biology, Cat. OKIA00111). Briefly, sera were serial diluted with kit sample diluent to a final dilution of 10,000-fold for 0.1 mpk dose and 2,500-fold for 0.3 mpk. This diluted sample was then added to the ELISA plates and the assay was then carried out according to directions.

[6] = Table 14, Example 58: LNP, G282 1:1
[7] = Example 58: 0.1 mpk i.v., 6 days post-dose, G282 1:1
[8] = Table 16, Example 59: LNP, G282 1:1
[9] = Example 59: 0.1 mpk i.v., 7 days post-dose, G282 1:1
[10] = Table 18, Example 60: LNP, G502 1:2
[11] = Table 18, Example 60: LNP, G502 (TTR), sgRNA:Cas9 mRNA 1:2 w/w
[12] = Example 60: 0.1 mpk i.v., 6 days post-dose, G502 1:2
[13] = Mus musculus, iv, 144 h, Example 60: 0.1 mpk i.v., 6 days post-dose, G502 1:2
[14] = Table 20, Example 61: LNP, G282 1:1
[15] = Example 61: 0.1 mpk i.v., 7 days post-dose, G282 1:1
[16] = Table 26, Example 64: LNP, G282 1:1
[17] = Example 64: Dose 0.03 mpk (table) i.v., 7 days post-dose, G282 1:1

CCCCCC/C=C\COC(=O)CCCCCCCN(CCO)CCCCCCCC(OCCCCCCCC)OCCCCCCCC [Compound 16, (Z)-non-2-en-1-yl 8-((8,8-bis(octyloxy)octyl)(2-hydroxyethyl)amino)octanoate]
pKa [1]: 6.34 | Num Ave Size (nm) [2, 6]: 66.66 nm | PDI [2, 6]: 0.132 | Z-Ave Size (nm) [2, 6]: 109.5 nm | Encapsulation (%) ([3]; Table 14, Example 58: LNP, G282 (TTR) 1:1 w/w): 78% | Editing Mean % Indel (TTR [4]; [7]): 35.2% | Serum TTR (TTR [5]; [7]): 516 µg/mL | response vs control in vivo at 0.1 mg/kg (TTR [5]; Mus musculus, iv, 144 h, Example 58: 0.1 mpk i.v., 6 days post-dose, G282 1:1): 52%

CCCCCCCCCOC(=O)CCCCCCCN(CCO)CCCCCCC(OCCCCCCC)OCCCCCCC [Compound 20, nonyl 8-((7,7-bis(heptyloxy)heptyl)(2-hydroxyethyl)amino)octanoate]
pKa [1]: 5.81 | Num Ave Size (nm) [2, 8]: 58.65 nm | PDI [2, 8]: 0.102 | Z-Ave Size (nm) [2, 8]: 84.49 nm | Encapsulation (%) ([3]; Table 16, Example 59: LNP, G282 (TTR) 1:1 w/w): 83% | Editing Mean % Indel (TTR [4]; [9]): 35.0% | Serum TTR (TTR [5]; [9]): 210 µg/mL | response vs control in vivo at 0.1 mg/kg (TTR [5]; Mus musculus, iv, 168 h, Example 59: 0.1 mpk i.v., 7 days post-dose, G282 1:1): 23%

CCCCCCCCCCC(=O)OCCCCCCN(CCO)CCCCCCCC(OCCCCCCCC)OCCCCCCCC [Compound 22, 6-((8,8-bis(octyloxy)octyl)(2-hydroxyethyl)amino)hexyl undecanoate]
pKa [1]: 6.18 | Num Ave Size (nm) [2, 10]: 66.68 nm | PDI [2, 10]: 0.029 | Z-Ave Size (nm) [2, 10]: 82.91 nm | Encapsulation (%) [3, 11]: 98% | Editing Mean % Indel (TTR [4]; [12]): 45.6% | Serum TTR (TTR [5]; [12]): 410 µg/mL | response vs control in vivo at 0.1 mg/kg (TTR [5]; [13]): 29%

CCCCCCCCOC(CCCCCCCN(CCO)CCCCCCCCOC(=O)CCCCCCCC)OCCCCCCCC [Compound 23, 8-((8,8-bis(octyloxy)octyl)(2-hydroxyethyl)amino)octyl nonanoate]
pKa [1]: 6.04 | Num Ave Size (nm) [2, 10]: 61.86 nm | PDI [2, 10]: 0.054 | Z-Ave Size (nm) [2, 10]: 79.04 nm | Encapsulation (%) [3, 11]: 93% | Editing Mean % Indel (TTR [4]; [12]): 53.6% | Serum TTR (TTR [5]; [12]): 307 µg/mL | response vs control in vivo at 0.1 mg/kg (TTR [5]; [13]): 22%

CCCCCCCCCOC(=O)CCCCCCCN(CCO)CCCCCCCCCC(CCCCCCCC)CCCCCCCC [Compound 26, nonyl 8-((2-hydroxyethyl)(10-octyloctadecyl)amino)octanoate, reference compound]
pKa [1]: 6.19 | Num Ave Size (nm) [2, 14]: 48.37 nm | PDI [2, 14]: 0.07 | Z-Ave Size (nm) [2, 14]: 63.25 nm | Encapsulation (%) ([3]; Table 20, Example 61: LNP, G282 (TTR) 1:1 w/w): 99% | Editing Mean % Indel (TTR [4]; [15]): 2.6% | Serum TTR (TTR [5]; [15]): 979 µg/mL | response vs control in vivo at 0.1 mg/kg (TTR [5]; Mus musculus, iv, 168 h, Example 61: 0.1 mpk i.v., 7 days post-dose, G282 1:1): 76%

CCCCCCCCCOC(=O)CCCCCCCN(CCCCCCC(OCCCCCCCC)OCCCCCCCC)CCCOC(=O)NC [Compound 40, nonyl 8-((7,7-bis(octyloxy)heptyl)(3-((methylcarbamoyl)oxy)propyl)amino)octanoate]
pKa [1]: 5.71 | Num Ave Size (nm) [2, 16]: 64 nm | PDI [2, 16]: 0.06 | Z-Ave Size (nm) [2, 16]: 83 nm | Encapsulation (%) ([3]; Table 26, Example 64: LNP, G282 (TTR) 1:1 w/w): 96% | Editing Mean % Indel (TTR [4]; [17]): 27.5% | Serum TTR (TTR [5]; [17]): 417.0 µg/mL | inhibition in vivo at 0.03 mg/kg (TTR [5]; Mus musculus, iv, 168 h, Example 64: Dose 0.03 mpk (table) i.v., 7 days post-dose, G282 1:1, read-out: Serum TTR (% KD)): 27.2%
